This is an account of results in US20200071326A1, “TAM KINASE INHIBITORS” (Syros Pharmaceuticals, Inc., priority 2017, published 2020).

Counter-ions that a name gives are not always drawn.

One assay has as its target T1, FLT3 (Homo sapiens, UniProt P36888).
T1 sequence (P36888 27-993): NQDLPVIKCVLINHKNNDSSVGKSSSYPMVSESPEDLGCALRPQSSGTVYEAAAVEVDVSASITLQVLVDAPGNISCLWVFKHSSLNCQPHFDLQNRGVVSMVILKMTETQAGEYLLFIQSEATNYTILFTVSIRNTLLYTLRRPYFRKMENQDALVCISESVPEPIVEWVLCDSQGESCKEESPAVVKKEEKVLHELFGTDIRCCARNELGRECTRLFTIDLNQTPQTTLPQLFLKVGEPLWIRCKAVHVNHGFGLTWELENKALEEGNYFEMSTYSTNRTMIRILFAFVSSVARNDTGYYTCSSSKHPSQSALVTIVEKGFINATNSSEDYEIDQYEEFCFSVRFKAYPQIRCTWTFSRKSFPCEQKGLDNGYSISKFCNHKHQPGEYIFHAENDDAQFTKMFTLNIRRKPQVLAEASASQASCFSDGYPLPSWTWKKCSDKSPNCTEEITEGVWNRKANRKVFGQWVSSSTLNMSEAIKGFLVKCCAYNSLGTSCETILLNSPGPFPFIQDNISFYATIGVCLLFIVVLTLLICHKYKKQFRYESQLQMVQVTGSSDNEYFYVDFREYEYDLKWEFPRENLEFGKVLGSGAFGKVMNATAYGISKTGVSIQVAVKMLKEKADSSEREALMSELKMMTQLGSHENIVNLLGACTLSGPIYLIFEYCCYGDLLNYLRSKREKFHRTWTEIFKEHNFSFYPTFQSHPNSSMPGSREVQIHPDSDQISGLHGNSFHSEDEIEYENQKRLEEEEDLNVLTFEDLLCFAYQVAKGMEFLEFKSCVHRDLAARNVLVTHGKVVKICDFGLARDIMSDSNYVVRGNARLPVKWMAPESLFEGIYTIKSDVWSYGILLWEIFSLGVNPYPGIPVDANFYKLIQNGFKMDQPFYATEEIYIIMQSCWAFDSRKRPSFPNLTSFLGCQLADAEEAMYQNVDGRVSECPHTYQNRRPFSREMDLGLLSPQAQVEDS
The assay is described as follows: IMAP fluorescence polarization kinase assay, FLT3. It counts as biochemical. Conditions: ATP 2.74 μM, enzyme 2.5 nM, 240 minutes, read-out: FLT3 inhibitory constant (Ki). Here is the method: (§1) Activities of compounds against each of TYRO3, AXL, and MERTK as well as against FLT3, were determined using an immobilized metal ion affinity-based fluorescence polarization (“IMAP”) assay. A fluorescently-labeled substrate peptide was phosphorylated in the kinase reaction, after which a binding solution containing large trivalent metal-based nanoparticles was added and the phosphorylated substrate binds to these beads. This reduces the rotational speed of the substrate which is then detected using fluorescence polarization as a read-out.
(§2) The substrates used for each enzyme are as follows: AXL: 5F1-KKKKEEIYFFFG-NH2(SEQ ID NO:1); FLT3: 5F1-KKKKEEIYFFF-NH2 (SEQ ID NO:2); MERTK: 5F1-EFPIYDFLPAKKK-NH2 (SEQ ID NO:3); and TYRO3: 5F1-EFPIYDFLPAKKK-NH2 (SEQ ID NO:4).
(§3) This assay was performed in a 384-well, polystyrene microplate in a final volume of 8 μl. Substrate (final concentration=400 nM), ATP (final concentrations=24.7μM for AXL; 2.74 μM for FLT3; 2.69 μM for MERTK; and 54.0 μM for TYRO3), compounds and enzyme (final concentrations=2.5 nM for AXL, FLT3 and TYRO3; 1.5 nM for MERTK) were pipetted in this order into the appropriate reaction buffer (AXL: 50 mM HEPES, pH 8.0, 1 mM DTT, 10 mM MgCl2, 0.01% BRU35, 0.01% Triton X-100; FLT3: 50 mM HEPES, pH 8.0, 1 mM DTT, 10 mM MgCl2, 0.01% Triton X-100, 0.01% NP40; MERTK/TYRO3: 50 mM HEPES, pH 8.0, 1 mM DTT, 10 mM MgCl2, 0.01% Triton X-100) and incubated at room temperature for varying times (AXL, FLT3 and MERTK: 240 minutes; TYRO3: 60 minutes). IMAP binding solution was then dispensed, the plate incubated for 60 minutes at room temperature and the fluorescence polarization measured. Data were analyzed using XLfit.

The target of a further assay is T2, MERTK (Homo sapiens, UniProt Q12866).
T2 sequence (Q12866 21-999): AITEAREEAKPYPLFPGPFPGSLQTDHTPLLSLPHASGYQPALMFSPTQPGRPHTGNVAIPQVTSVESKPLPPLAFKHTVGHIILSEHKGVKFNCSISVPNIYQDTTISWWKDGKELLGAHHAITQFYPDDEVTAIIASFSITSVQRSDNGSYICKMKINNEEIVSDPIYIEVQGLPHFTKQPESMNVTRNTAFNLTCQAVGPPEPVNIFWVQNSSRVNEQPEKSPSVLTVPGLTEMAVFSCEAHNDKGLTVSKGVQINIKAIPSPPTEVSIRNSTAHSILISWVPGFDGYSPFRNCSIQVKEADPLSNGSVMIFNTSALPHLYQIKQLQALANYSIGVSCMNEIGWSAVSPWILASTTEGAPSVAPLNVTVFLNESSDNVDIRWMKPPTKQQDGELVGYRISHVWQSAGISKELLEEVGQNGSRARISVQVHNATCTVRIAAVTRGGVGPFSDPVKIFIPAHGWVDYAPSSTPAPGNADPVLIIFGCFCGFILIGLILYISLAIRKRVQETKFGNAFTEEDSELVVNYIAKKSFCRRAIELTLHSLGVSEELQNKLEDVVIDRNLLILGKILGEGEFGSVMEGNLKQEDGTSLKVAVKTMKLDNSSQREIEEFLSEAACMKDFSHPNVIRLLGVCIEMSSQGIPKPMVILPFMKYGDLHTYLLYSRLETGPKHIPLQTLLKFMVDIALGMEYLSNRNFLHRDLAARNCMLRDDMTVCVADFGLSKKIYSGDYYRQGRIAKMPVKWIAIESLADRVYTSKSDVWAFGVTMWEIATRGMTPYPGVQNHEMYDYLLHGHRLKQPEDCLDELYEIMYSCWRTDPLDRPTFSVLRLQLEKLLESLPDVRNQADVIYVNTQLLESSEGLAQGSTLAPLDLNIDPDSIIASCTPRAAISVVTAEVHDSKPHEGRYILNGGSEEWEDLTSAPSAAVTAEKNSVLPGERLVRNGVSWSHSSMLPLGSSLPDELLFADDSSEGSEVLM
Nature of the assay: IMAP fluorescence polarization kinase assay, MERTK. It counts as biochemical. The settings on record: ATP 2.69 μM, enzyme 1.5 nM, 240 minutes, read-out: MERTK inhibitory constant (Ki). The protocol:
as §1, §2, §3
In general terms: In fluorescence polarisation assays a small probe gives low polarisation when free and higher when bound to something large.

For orientation: Ki means a dissociation constant, usually derived from enzyme kinetics or from competition with a known ligand. Regarding `N[C@H]1CC[C@H](Nc2c(C(=O)NCc3ccc(-n4ccnc4)cc3)cnc3[nH]c(-c4ccccc4)cc23)CC1` [Compound 110], the inhibition constant (Ki) was 1000 to 10000 nM on FLT3 and below 100 nM on MERTK.
`CCCc1cc2c(N[C@H]3CC[C@H](N)CC3)c(-c3ccc(F)cn3)cnc2[nH]1` [Compound 114]: the Ki on FLT3 and at MERTK was below 100 nM in each case.
As for `CC(O)c1cc2c(N[C@H]3CC[C@H](O)CC3)c(-c3ccc(CN4CCOCC4)cn3)cnc2[nH]1` (some centres unmarked) [Compound 143], the inhibitory constant (Ki) at FLT3 and at MERTK was below 100 nM each time.
Consider `CCc1cc2c(N[C@H]3CC[C@H](N)CC3)c(C(=O)NCc3ccc(-n4ccnc4)cc3)cnc2[nH]1` [Compound 119, N-(4-(1H-imidazol-1-yl)benzyl)-4-(((1r,4r)-4-aminocyclohexyl)amino)-2-ethyl-1H-pyrrolo[2,3-b]pyridine-5-carboxamide], for which the inhibitory constant (Ki) on FLT3 and on MERTK was below 100 nM each time.
As for `CCc1cc2c(N[C@H]3CC[C@H](O)CC3)c(-c3ccc(CN4CCOCC4)cn3)cnc2[nH]1` [Compound 144], the Ki at FLT3 and on MERTK was below 100 nM in each case.
As to `CCCC(OC)c1cc2c(N[C@H]3CC[C@H](N)CC3)c(C(=O)Nc3ccc(F)cc3)cnc2[nH]1` (some centres unmarked) [Compound 153], the Ki at FLT3 was above 10000 nM; at MERTK it was 1000 to 10000 nM.
`CCCc1cc2c(N[C@H]3CC[C@H](O)CC3)c(-c3ccc(CNCC45C[C@H]6C[C@@H](C4)C[C@@H](C5)C6)cn3)cnc2[nH]1` [Compound 109]: the inhibition constant Ki at FLT3 and on MERTK was below 100 nM throughout.
Turning to `CCCc1cc2c(N[C@H]3CC[C@H](O)CC3)c(C(=O)NCc3ccc(-n4ccnc4)cc3)cnc2[nH]1` [Compound 102], the Ki at FLT3 and at MERTK was below 100 nM in each case.
With `CCc1cc2c(N[C@H]3CC[C@H](N)CC3)c(C(=O)NC3CCN(c4ncccn4)CC3)cnc2[nH]1` [Compound 132], the inhibition constant Ki at FLT3 and on MERTK was below 100 nM throughout.
Turning to `CCCC(O)c1cc2c(N[C@H]3CC[C@H](N)CC3)c(C(=O)Nc3ccc(F)cc3)cnc2[nH]1` (some centres unmarked) [Compound 154], the inhibition constant (Ki) is above 10000 nM on FLT3 and 1000 to 10000 nM on MERTK.
The matching figures for `CCCc1cc2c(N[C@H]3CC[C@H](O)CC3)c(-c3ccc(CN4CCCC4)cn3)cnc2[nH]1` [Compound 125]: below 100 nM and below 100 nM.
With `CCC[C@@H](C)c1cc2c(N[C@H]3CC[C@H](N)CC3)c(C(=O)Nc3ccc(F)cc3)cnc2[nH]1` [Compound 150], the Ki is 1000 to 10000 nM at FLT3 and below 100 nM at MERTK.
On to `CCC(CC)c1cc2c(N[C@H]3CC[C@H](N)CC3)c(C(=O)Nc3ccc(F)cc3)cnc2[nH]1` [Compound 147], for which the results for the inhibition constant Ki on FLT3 and on MERTK were 1000 to 10000 nM and 100 to 1000 nM, respectively.
Regarding `CCCc1cc2c(N[C@H]3CC[C@H](N)CC3)c(C(=O)Nc3ccc(F)cc3)cnc2[nH]1` [Compound 100, 4-(((1r,4r)-4-aminocyclohexyl)amino)-N-(4-fluorophenyl)-2-propyl-1H-pyrrolo [2,3-b]pyridine-5-carboxamide hydrochloride], the inhibition constant (Ki) at FLT3 and on MERTK was below 100 nM each time.
For the molecule `CCCc1cc2c(N[C@H]3CC[C@H](O)CC3)c(-c3ccc(CN4CCOCC4)cn3)cnc2[nH]1` [Compound 105], the Ki at FLT3 and at MERTK was below 100 nM each time.
Take `COCC(C)c1cc2c(N[C@H]3CC[C@H](N)CC3)c(C(=O)Nc3ccc(F)cc3)cnc2[nH]1` (some centres unmarked) [Compound 155]: the inhibitory constant (Ki) lay within 1000 to 10000 nM on FLT3 and 100 to 1000 nM on MERTK.
On to `CCCc1cc2c(N[C@H]3CC[C@H](N)CC3)c(C(=O)OC)cnc2[nH]1` [Compound 140], for which the Ki on FLT3 and at MERTK was below 100 nM throughout.
For `N[C@H]1CC[C@H](Nc2c(C(=O)Nc3ccc(F)cc3)cnc3[nH]c(C(F)(F)F)cc23)CC1` [Compound 135, 4-(((1r,4r)-4-aminocyclohexyl)amino)-N-(4-fluorophenyl)-2-(trifluoromethyl)-1H-pyrrolo[2,3-b]pyridine-5-carboxamide hydrochloride], the inhibition constant (Ki) is 100 to 1000 nM on FLT3 and below 100 nM on MERTK.
Consider `CCC(C)c1cc2c(N[C@H]3CC[C@H](O)CC3)c(C(=O)NC3CCN(C4=NCCCN4)CC3)cnc2[nH]1` (some centres unmarked) [Compound 158], for which the inhibitory constant (Ki) on FLT3 is 100 to 1000 nM; at MERTK it was below 100 nM.
Consider `CCC(OC)c1cc2c(N[C@H]3CC[C@H](N)CC3)c(C(=O)Nc3ccc(F)cc3)cnc2[nH]1` (some centres unmarked) [Compound 146], for which the inhibition constant (Ki) lay in the range of 1000 to 10000 nM at FLT3 and 100 to 1000 nM on MERTK.
The matching figures for `CCCc1cc2c(N[C@H]3CC[C@H](O)CC3)c(-c3cnn(CCN(C)C)c3)cnc2[nH]1` [Compound 107]: 100 to 1000 nM and 100 to 1000 nM.
`CCCc1cc2c(N[C@H]3CC[C@H](O)CC3)c(C(=O)Nc3ccc(F)cc3)cnc2[nH]1` [Compound 101]: the inhibition constant Ki on FLT3 and on MERTK was 100 to 1000 nM each time.
For `CCCc1cc2c(N[C@H]3CC[C@H](N)CC3)c(-c3cc(NC)ncn3)cnc2[nH]1` [Compound 111, (1r,4r)-N^1-(5-(6-(methylamino)pyrimidin-4-yl)-2-propyl-1H-pyrrolo[2,3-b]pyridine-4-yl)cyclohexane-1,4-diamine hydrochloride], the inhibition constant Ki on FLT3 and on MERTK was below 100 nM throughout.
Take `CCCc1cc2c(N[C@H]3CC[C@H](N)CC3)c(-c3ccc(C)nn3)cnc2[nH]1` [Compound 127]: the Ki on FLT3 and at MERTK was below 100 nM each time.
For `CCCc1cc2c(N[C@H]3CC[C@H](N)CC3)c(C(=O)NC3CCOCC3)cnc2[nH]1` [Compound 124], the values for the inhibition constant (Ki) on FLT3 and at MERTK were 100 to 1000 nM and below 100 nM, respectively.
